Legend:
[1] = test system: rat paw edema (carrageenan foot edema); experiment: Rat carrageenan foot pad edema test; type: in vivo, rat (male Sprague-Dawley); details: dosed orally 1 h before carrageenan, foot volume 3 h after carrageenan
Method: Rat Carrageenan Foot Pad Edema Test
The carrageenan foot edema test was performed with materials, reagents and procedures essentially as described by winter, et al., (Proc. Soc. Exp. Biol. Med., 111, 544 (1962)). Male Sprague-Dawley rats were selected in each group so that the average body weight was as close as possible. Rats were fasted with free access to water for over sixteen hours prior to the test. The rats were dosed orally (1 mL) with compounds suspended in vehicle containing 0.5% methylcellulose and 0.025% surfactant, or with vehicle alone. One hour later a subplantar injection of 0.1 mL of 1% solution of carrageenan/sterile 0.9% saline was administered and the volume of the injected foot was measured with a displacement plethysmometer connected to a pressure transducer with a digital indicator. Three hours after the injection of the carrageenan, the volume of the foot was again measured. The average foot swelling in a group of drug-treated animals was compared with that of a group of placebo-treated animals and the percentage inhibition of edema was determined (Otterness and Bliven, Laboratory Models for Testing NSAIDs, in Non-steroidal Anti-Inflammatory Drugs, (J. Lombardino, ed. 1985)).

COX-2 = biological target: T1, COX-2 (UniProt P35354); experiment: Assay for COX-2 activity in vitro (PGE2 ELISA, recombinant enzyme); type: biochemical, human or murine; details: recombinant COX-2, arachidonic acid 10 μM, pre-incubation 10–20 minutes
T1 sequence (P35354 1-604): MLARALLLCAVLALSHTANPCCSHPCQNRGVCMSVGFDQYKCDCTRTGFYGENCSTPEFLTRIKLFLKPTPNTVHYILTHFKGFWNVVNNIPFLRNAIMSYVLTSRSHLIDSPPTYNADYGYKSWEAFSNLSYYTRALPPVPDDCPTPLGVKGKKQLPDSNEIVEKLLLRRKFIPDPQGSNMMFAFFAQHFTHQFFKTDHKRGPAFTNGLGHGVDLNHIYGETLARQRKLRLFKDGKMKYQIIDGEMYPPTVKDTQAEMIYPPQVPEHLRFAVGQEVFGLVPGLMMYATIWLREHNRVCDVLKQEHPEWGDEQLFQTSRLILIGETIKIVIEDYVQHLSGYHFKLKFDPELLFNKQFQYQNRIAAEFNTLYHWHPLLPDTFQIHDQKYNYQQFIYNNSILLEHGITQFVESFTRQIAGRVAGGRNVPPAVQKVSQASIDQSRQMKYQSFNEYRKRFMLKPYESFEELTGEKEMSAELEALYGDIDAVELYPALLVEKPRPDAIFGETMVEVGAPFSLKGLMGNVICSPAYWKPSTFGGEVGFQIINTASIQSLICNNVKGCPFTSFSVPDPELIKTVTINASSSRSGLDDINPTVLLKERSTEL
Method: Evaluation of COX-1 and COX-2 Activity in vitro
The COX-2 inhibit on activity of the compounds or this invention illustrated in the Examples was determined by the following methods. a. Preparation of Recombinant COX Baculoviruses
(§1) Recombinant COX-1 and COX-2 were prepared as described by Gierse et al, [J. Biochem., 305, 479–84 (1995)]. A 2.0 kb fragment containing the coding region of either human or murine COX-1 or human or murine COX-2 was cloned into a BamHI site of the baculovirus transfer vector pVL1393 (Invitrogen) to generate the baculovirus transfer vectors for COX-1 and COX-2 in a manner similar to the method of D. R. O'Reilly et al (Baculovirus Expression Vectors: A Laboratory Manual (1992)). Recombinant baculoviruses were isolated by transfecting 4 μg of baculovirus transfer vector DNA into SF9 insect cells (2×10^8) along with 200 ng of linearized baculovirus plasmid DNA by the calcium phosphate method. See M. D. Summers and G. E. Smith, A Manual of Methods for Baculovirus Vectors and Insect Cell Culture Procedures, Texas Agric. Exp. Station Bull. 1555 (1987). Recombinant viruses were purified by three rounds of plaque purification and high titer (10^7–10^8 pfu/ml) stocks of virus were prepared. For large scale production, SF9 insect cells were infected in 10 liter fermentors (0.5×10^6/ml) with the recombinant baculovirus stock such that the multiplicity of infection was 0.1. After 72 hours the cells were centrifuged and the cell pellet homogenized in Tris/Sucrose (50 mM: 25%, pH 8.0) containing 1% 3-[(3-cholamidopropyl)dimethylammonio]-1-propanesulfonate (CHAPS). The homogenate was centrifuged at 10,000×G for 30 minutes, and the resultant supernatant was stored at −80° C. before being assayed for COX activity. […]
(§2) b. Assay for COX-1 and COX-2 Activity
(§3) COX activity was assayed as PGE2 formed/μg protein/time using an ELISA to detect the prostaglandin released. CHAPS-solubilized insect cell membranes containing the appropriate COX enzyme were incubated in a potassium phosphate buffer (50 mM, pH 8.0) containing epinephrine, phenol, and heme with the addition of arachidonic acid (10 μM). Compounds were pre-incubated with the enzyme for 10–20 minutes prior to the addition of arachidonic acid. Any reaction between the arachidonic acid and the enzyme was stopped after ten minutes at 37° C./room temperature by transferring 40 μl of reaction mix into 160 μl ELISA buffer and 25 μM indomethacin. The PGE2 formed was measured by standard ELISA technology (Cayman Chemical).

COX-1 = COX-1 (UniProt P23219); experiment: Assay for COX-1 activity in vitro (PGE2 ELISA, recombinant enzyme); type: biochemical, human or murine; details: recombinant COX-1, arachidonic acid 10 μM, pre-incubation 10–20 minutes
Method: Evaluation of COX-1 and COX-2 Activity in vitro a. Preparation of Recombinant COX Baculoviruses
as §1, §2, §3

5-lipoxygenase (5-LO) = biological target: T2, 5-lipoxygenase (5-LO) (Homo sapiens, UniProt P09917); experiment: Assay for 5-lipoxygenase activity: calcium ionophore-induced LTB4 production in human whole blood; type: cell-based; details: A-23187 (20 μg/ml)-induced LTB4 in human whole blood; mean IC50
T2 construct: calcium ionophore-induced Leukotriene B4 (LTB4) production in human whole blood; endogenous in cells; host or cells: human whole blood (healthy donors), diluted 1:4 in RPMI 1640
T2 sequence (P09917 1-674): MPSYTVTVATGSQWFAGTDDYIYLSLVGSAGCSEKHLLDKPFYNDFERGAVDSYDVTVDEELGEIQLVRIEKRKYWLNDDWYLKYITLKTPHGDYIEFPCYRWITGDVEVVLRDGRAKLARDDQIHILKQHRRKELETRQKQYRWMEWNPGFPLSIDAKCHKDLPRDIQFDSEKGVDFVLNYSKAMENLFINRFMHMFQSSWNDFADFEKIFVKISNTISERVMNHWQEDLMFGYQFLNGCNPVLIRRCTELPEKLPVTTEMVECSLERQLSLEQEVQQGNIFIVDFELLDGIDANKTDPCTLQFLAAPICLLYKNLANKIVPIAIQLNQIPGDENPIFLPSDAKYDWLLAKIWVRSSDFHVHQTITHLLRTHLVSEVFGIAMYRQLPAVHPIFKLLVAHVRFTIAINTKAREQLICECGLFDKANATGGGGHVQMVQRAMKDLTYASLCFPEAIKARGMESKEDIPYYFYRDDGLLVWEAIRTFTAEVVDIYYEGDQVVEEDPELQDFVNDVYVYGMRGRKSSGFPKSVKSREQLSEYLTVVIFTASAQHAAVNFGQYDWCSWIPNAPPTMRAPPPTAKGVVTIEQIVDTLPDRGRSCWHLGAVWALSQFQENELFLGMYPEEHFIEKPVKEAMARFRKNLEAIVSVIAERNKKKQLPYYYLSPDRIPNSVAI
Method: Assay for 5-Lipoxygenase Activity
The 5-lipoxygenase (5-LO) activity of the compounds were determined by the calcium ionophore-induced Leukotriene B4 (LTB4) production in human whole blood. Venous blood was collected from healthy human donors using heparin as an anti-coagulant. Human blood samples (0.2 ml of a 1:4 dilution in RPMI 1640 medium) were incubated in 96-well culture plates for 15 minutes at 37° C. with test compounds dissolved in ethanol (EtOH; final concentration<1%), or vehicle. Typically 7 concentrations of test compounds were examined in duplicate. A-23187 [Sigma] was added to the blood to a final concentration of 20 μg/ml, and the mixtures were incubated for 10 minutes at 37° C. The reaction was stopped by placing the samples on ice. The samples were then centrifuged at 800×g at 4° C. for 10 minutes to pellet the cells, and the supernatants were recovered for quantitation of LTB4 by LISA (Cayman Chemical Co.; sensitivity 3 pg/ml). IC50's were estimated from a four parameter logistic model with two parameters fixed, the minimum (0% inhibition) and maximum (100% inhibition). The IC50 value is the concentration that produces 50% inhibition between the fixed values of the minimum and maximum. Data is reported as the mean IC50 for each compound.

| IC50 (COX-2) | IC50 (COX-1) | IC50 (5-lipoxygenase (5-LO)) | melting point | Structure (SMILES) | RAT PAW EDEMA % Inhibition @ 10 mg/kg body weight [1] |
| --- | --- | --- | --- | --- | --- |
| < 0.1 µM | > 100 µM | 0.02 µM |  | COC1(c2cc(F)cc(OCc3nc(-c4ccc(F)cc4)c(-c4ccc(S(C)(=O)=O)cc4)o3)c2)CCOCC1 [Example 3, 4-(4-Fluorophenyl)-2-[[3-fluoro-5-(3,4,5,6-tetrahydro-4-methoxy-2H-pyran-4-yl)phenoxy)methyl]-5-(4-(methylsulfonyl)phenyl)oxazole] | 15% |
| < 0.1 µM | < 0.1 µM | 14 µM | 159 to 161 °C | COC1(c2cc(F)cc(Oc3nc(-c4ccccc4)c(-c4ccc(S(N)(=O)=O)cc4)o3)c2)CCOCC1 [Example 4, 4-[2-[3-Fluoro-5-(4-methoxy-3,4,5,6-tetrahydro-2H-pyran-4-yl)phenoxy]-4-phenyl-5-oxazolyl]benzenesulfonamide] |  |
| < 0.1 µM | 2.6 µM | > 10 µM | 74.7 to 78.5 °C | COC1(c2cccc(CSc3nc(-c4ccccc4)c(-c4ccc(S(N)(=O)=O)cc4)o3)c2)CCOCC1 [Example 21] |  |

Reference: US6998415B2, “Substituted sulfonylphenylheterocycles as cyclooxygenase-2 and 5-lipoxygenase inhibitors” (Pharmacia Corporation, priority 1996, dated 2006)
